Experimental data taken from paper PMC4076210, “Discovery of Novel AKT Inhibitors with Enhanced Anti-Tumor Effects in Combination with the MEK Inhibitor” (PLoS ONE, 2014).
Values joined by “and” are separate entries in the source; they are usually repeats but may differ in a detail not shown here. Identical values can stand only once.

Legend:
CLK3(h) = molecular target: T1, CLK3(h) (Homo sapiens, UniProt P49761); test: Kinase panel; assay type: biochemical
T1 construct: purchased Millipore KinaseProfiler

PKBα(h) = molecular target: T2, PKBα(h) (Homo sapiens, UniProt P31749); test: Kinase panel; assay type: biochemical
T2 construct: purchased Millipore KinaseProfiler

[1] = tested on: FOXO_GFP translocation in MDA-MB-468; test: FOXO3A-GFP translocation assay; assay type: cell-based, human; details: MDA-MB-468, 1 h, mean ± std dev
Description: MDA-MB-468 cells stably transfected with FOXO3A-GFP were plated at 1000 cells/96 well and allowed to adhere overnight. Cells were treated with DMSO or AKT inhibitor (0-10 µM) for 1 h. Plates were centrifuged at 1200 rpm for 10 min, and the medium aspirated. Cells were fixed with 200 μL of 4% paraformaldehyde (Alfa Aesar, Wood Hill, MA), and DAPI (80 ng/mL, Roche, Branchburg, NJ) was added to each well and incubated for 20 min at room temperature. […] Five fields per well were imaged to achieve ≥250 nuclei count per well. A ratio of nuclear to cytoplasmic intensity was calculated by the software. The formula used to calculate percentage nuclear translocation = (Fluorescence sample- Fluorescence DMSO)/ (Fluorescence 10 µM treatment sample- Fluorescence DMSO)*100. The calculation produces a scale of 0-100% with 100% being 10 µM of compound treatment and 0 being DMSO treatment. The normalized values were then plotted in the XLFit 4 parameter curve fitting program to generate EC50 values.

A3 cells = test: Cell cycle analysis; assay type: cell-based, human; details: A3, 1 µM
Description: (§1) Cells were plated in 96 well plates at a density of 3000-5000 cells/well and allowed to adhere overnight. Cells were treated with DMSO or various concentrations of drug for 72 h, fixed and stained with propidium iodide to stain nuclei (Vindelov, 1982). Cells were analyzed in a flow cytometer (FACSCalibur; BD Biosciences, Franklin Lakes, NJ) and the fraction of cells in each phase of cell cycle was determined using the cell cycle analysis platform contained within the FlowJo software (Tree Star, Ashland, OR).

BT474 cells = test: Cell cycle analysis; assay type: cell-based, human; details: BT474, evident at 1 µM
Description: as §1

I9.2 cells = test: Cell cycle analysis; assay type: cell-based, human; details: I9.2, 1 µM
Description: as §1

LNCaP cells = test: Cell cycle analysis; assay type: cell-based, human; details: various concentrations
Description: as §1

CAPAN-2 tumor xenografts = test: Xenograft tumor growth inhibition, combination with MEK inhibitor; assay type: in vivo, mouse; details: 30 mg/kg, day 69
Description: (§2) Tumors were initiated by injecting either cells (SKOV3, CAPAN-2 and HPAC) or a tumor fragments (BT474) subcutaneously into 6–8 week female athymic nude (SKOV3) and SCID (all others) mice. Once tumors reached between 120 and 300 mm^3, mice were randomized according to tumor volume into groups of n = 7–10 mice per treatment. GSK2110183 and GSK2141795 were administered daily at various doses by oral gavage. In combination experiments, GSK1120212 was also administered daily by oral gavage. Tumor volumes and body weight were measured twice weekly, tumor volume was measured with calipers and calculated using equation: […]. Results are represented as percent inhibition on completion of dosing = 100 x [1- average growth of drug-treated population/average growth of vehicle-treated control population].

HPAC tumor xenografts = test: as above; assay type: in vivo, mouse; details: 30 mg/kg daily, day 42
Description: as §2

cancer patients = details: unselected patient population; cited from earlier work

T2 sequence (P31749 whole entry): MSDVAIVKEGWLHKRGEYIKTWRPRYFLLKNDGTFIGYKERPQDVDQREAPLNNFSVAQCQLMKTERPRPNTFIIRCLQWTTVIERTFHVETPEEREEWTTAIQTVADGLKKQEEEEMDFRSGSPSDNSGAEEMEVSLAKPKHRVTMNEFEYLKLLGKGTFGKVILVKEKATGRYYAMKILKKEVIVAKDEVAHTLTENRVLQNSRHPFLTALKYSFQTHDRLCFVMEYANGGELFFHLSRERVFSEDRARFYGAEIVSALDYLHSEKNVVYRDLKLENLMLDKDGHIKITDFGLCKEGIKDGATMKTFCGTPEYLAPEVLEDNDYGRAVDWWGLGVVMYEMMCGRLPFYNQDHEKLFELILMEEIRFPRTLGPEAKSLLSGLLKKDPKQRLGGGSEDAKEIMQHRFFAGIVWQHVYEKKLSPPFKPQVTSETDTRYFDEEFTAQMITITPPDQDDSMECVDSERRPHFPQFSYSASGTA
T1 sequence (P49761 whole entry): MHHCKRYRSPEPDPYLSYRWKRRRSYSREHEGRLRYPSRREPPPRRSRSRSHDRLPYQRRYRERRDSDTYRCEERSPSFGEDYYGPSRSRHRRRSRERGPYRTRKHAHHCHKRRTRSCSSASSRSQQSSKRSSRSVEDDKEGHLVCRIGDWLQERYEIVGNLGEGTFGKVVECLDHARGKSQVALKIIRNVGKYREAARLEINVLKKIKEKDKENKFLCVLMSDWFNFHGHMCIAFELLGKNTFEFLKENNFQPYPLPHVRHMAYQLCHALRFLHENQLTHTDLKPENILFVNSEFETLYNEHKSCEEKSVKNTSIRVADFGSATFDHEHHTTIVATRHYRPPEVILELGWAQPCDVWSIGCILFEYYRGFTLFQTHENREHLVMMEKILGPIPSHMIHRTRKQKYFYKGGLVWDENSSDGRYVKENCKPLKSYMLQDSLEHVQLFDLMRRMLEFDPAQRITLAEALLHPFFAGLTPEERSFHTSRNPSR

In the case of Cn1ncc(Cl)c1-c1cc(C(=O)N[C@H](CN)Cc2ccc(F)c(F)c2)oc1Cl [GSK2141795], the inhibition at 0.5 µM (CLK3(h); 0.5 µM) is reported as 2%, the inhibition at 10 µM (CLK3(h); 10 µM) is reported as 59% and the inhibition at 0.5 µM (PKBα(h); 0.5 µM) is reported as 99%. The inhibition at 10 µM (PKBα(h); 10 µM) was 99%, the “IC50 (nM) / EC50, FOXO_GFP translocation” value [1] was 47 nM and 47 ± 37 nM and the “effect on cell cycle” value (A3 cells) was “dose dependant increase in G1 cellular arrest”. The “effect on cell cycle” value (BT474 cells) was “G1 arrest”, the “effect on cell cycle” value (I9.2 cells) was “dose dependant increase in G1 cellular arrest” and the “effect on cell cycle” value (LNCaP cells) was “concentration-dependent increase in cells within the sub-G1 phase”. The TGI (CAPAN-2 tumor xenografts) was 26%, the TGI (HPAC tumor xenografts) was 31% and the “clinical activity, single agent” value (cancer patients) was “partial response and stable disease”.
